Values of other authors in patent US20250304714A1, “Methods of Treating Metastatic Castration-Resistant Prostate Cancer with Bispecific Anti-PSMA x Anti-CD3 Antibodies Alone or in Combination with Anti-PD-1 Antibodies” (Regeneron Pharmaceuticals, Inc., priority 2022, published 2025).

Legend:
[1] = intended dose ˜9±1 mCi per IV injection; cited from earlier work
[2] = multiple phase 1 to 3 studies, prostate cancer patients; cited from earlier work

Structure (SMILES): O=C(O)CC[C@H](NC(=O)N[C@@H](CCCCNC(=O)c1ccc(F)nc1)C(=O)O)C(=O)O [DCFPyL]
- Radiation dose from the PET/CT scan [1]: about 7.4 mSv
- tolerability [2]: well tolerated
